The assay deals with T1, human recombinant HDAC6 (Homo sapiens, UniProt Q9UBN7).
T1 construct: purchased Calbiochem 382180
T1 sequence (Q9UBN7 1-1215): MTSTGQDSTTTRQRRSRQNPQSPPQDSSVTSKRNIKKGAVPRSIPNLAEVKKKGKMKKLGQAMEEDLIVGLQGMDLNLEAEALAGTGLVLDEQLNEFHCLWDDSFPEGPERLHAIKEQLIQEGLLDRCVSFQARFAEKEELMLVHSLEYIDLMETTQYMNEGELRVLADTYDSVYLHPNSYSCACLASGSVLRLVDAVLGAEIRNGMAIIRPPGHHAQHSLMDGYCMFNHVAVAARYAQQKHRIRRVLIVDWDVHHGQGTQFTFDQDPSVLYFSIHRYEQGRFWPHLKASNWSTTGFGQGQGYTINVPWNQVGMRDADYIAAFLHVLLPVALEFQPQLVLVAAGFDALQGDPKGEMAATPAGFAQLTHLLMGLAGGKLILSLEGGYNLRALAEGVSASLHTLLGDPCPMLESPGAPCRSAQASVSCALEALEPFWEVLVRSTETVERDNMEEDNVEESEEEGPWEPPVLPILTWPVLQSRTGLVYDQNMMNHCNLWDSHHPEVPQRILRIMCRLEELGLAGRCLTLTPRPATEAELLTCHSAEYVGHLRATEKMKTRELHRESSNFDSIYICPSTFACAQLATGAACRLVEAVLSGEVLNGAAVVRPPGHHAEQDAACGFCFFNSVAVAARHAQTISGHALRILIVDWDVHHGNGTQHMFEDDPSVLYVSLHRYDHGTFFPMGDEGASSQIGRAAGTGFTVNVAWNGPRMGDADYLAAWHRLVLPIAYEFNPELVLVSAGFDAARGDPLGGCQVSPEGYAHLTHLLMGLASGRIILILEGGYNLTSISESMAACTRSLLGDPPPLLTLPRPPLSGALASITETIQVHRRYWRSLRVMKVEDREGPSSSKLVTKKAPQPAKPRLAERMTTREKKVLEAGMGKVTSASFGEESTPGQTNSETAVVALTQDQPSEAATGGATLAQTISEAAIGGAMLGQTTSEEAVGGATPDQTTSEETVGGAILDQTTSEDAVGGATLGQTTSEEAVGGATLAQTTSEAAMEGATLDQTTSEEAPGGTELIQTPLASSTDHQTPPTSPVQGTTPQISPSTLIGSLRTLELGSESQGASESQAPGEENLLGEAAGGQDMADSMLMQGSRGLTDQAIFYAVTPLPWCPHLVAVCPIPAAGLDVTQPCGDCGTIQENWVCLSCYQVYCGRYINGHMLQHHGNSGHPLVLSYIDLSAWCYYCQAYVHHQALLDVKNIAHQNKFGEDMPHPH
Kind of assay: HDAC6 enzyme activity inhibition assay (HDAC Fluorimetric Drug Discovery Kit). It is filed as biochemical. The following applies: for HDAC6 selectivity (fold): HDAC6 over HDAC1; for IC50: human recombinant HDAC6, same protocol as HDAC1. An outline of the steps:
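Human recombinant HDAC1 or HDAC6 (0.3 μg) reacted with 10 μM Fluor de Lys-SIRT1 substrate and 5-fold compound dilutions for 60 min at 30 °C. Developer II added for 30 min, fluorescence read at Ex 360/Em 460; IC50 calculated from the readings.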

Like-named read-outs stand apart in the source and are kept apart here.

In the case of `CN1CCN(C(=O)N(Cc2ccc(-c3nnc(C(F)(F)F)o3)cc2F)c2ccc(F)c(Cl)c2)CC1` [Compound 21564, N-(3-chloro-4-fluorophenyl)-N-(2-fluoro-4-(5-(trifluoromethyl)-1,3,4-oxadiazol-2-yl)benzyl)-4-methylpiperazine-1-carboxamide], the “HDAC6 selectivity (fold)” value is listed as 88 fold. Besides, the IC50 (read-out: HDAC6) stood at 113 nM.
For the molecule `CN1CCN(C(=O)N(Cc2ccc(-c3nnc(C(F)F)o3)cc2F)c2ccc(F)c(Cl)c2)CC1` [Compound 21565, N-(3-chloro-4-fluorophenyl)-N-(4-(5-(difluoromethyl)-1,3,4-oxadiazol-2-yl)-2-fluorobenzyl)-4-methylpiperazine-1-carboxamide], the “HDAC6 selectivity (fold)” value was found to be 625 fold. Besides, the IC50 (read-out: HDAC6) turned out to be 16 nM.
With `O=C(N1CC2(COC2)C1)N(Cc1ccc(-c2nnc(C(F)F)o2)cn1)c1ccccc1` [Compound 21566, N-((5-(5-(difluoromethyl)-1,3,4-oxadiazol-2-yl)pyridin-2-yl)methyl)-N-phenyl-2-oxa-6-azaspiro[3.3]heptane-6-carboxamide], the “HDAC6 selectivity (fold)” value was 526 fold. Also, the IC50 (read-out: HDAC6) amounted to 19 nM.
With `CC(C)(C)OC(=O)N(Cc1ccc(-c2nnc(C(F)F)o2)cc1)c1ccccc1` [Compound 21568, Tert-butyl (4-(5-(difluoromethyl)-1,3,4-oxadiazol-2-yl)benzyl)(phenyl)carbamate], the “HDAC6 selectivity (fold)” value was 42 fold. Moreover, the IC50 (read-out: HDAC6) was determined as 237 nM.
Turning to `O=C(Oc1ccccc1)N(Cc1ccc(-c2nnc(C(F)F)o2)cc1)c1ccccc1` [Compound 21569, Phenyl (4-(5-(difluoromethyl)-1,3,4-oxadiazol-2-yl)benzyl)(phenyl)carbamate], the “HDAC6 selectivity (fold)” value is listed as 59 fold. The IC50 (HDAC6 (nM)) was determined as 170 nM.
In the case of `CC(C)COC(=O)N(Cc1ccc(-c2nnc(C(F)F)o2)cc1)c1ccccc1` [Compound 21570, Isobutyl (4-(5-(difluoromethyl)-1,3,4-oxadiazol-2-yl)benzyl)(phenyl)carbamate], the “HDAC6 selectivity (fold)” value came to 32 fold. Also, the IC50 (read-out: HDAC6) came out at 309 nM.
In the same order, the values of `CCCCN(Cc1ccc(-c2nnc(C(F)F)o2)cc1)C(=O)Nc1ccccc1` [Compound 21576, 1-Butyl-1-(4-(5-(difluoromethyl)-1,3,4-oxadiazol-2-yl)benzyl)-3-phenylurea] are 24 fold and 409 nM.
As to `CN(C)CCNC(=O)N(Cc1ccc(-c2nnc(C(F)F)o2)cc1)c1ccccc1` [Compound 21577, 1-(4-(5-(Difluoromethyl)-1,3,4-oxadiazol-2-yl)benzyl)-3-(2-(dimethylamino)ethyl)-1-phenylurea], the “HDAC6 selectivity (fold)” value is on record as 152 fold. The IC50 (read-out: HDAC6) is 66 nM.
Turning to `CCN(CCN(C)C)C(=O)N(Cc1ccc(-c2nnc(C(F)F)o2)cc1)c1ccccc1` [Compound 21578, 1-(4-(5-(Difluoromethyl)-1,3,4-oxadiazol-2-yl)benzyl)-3-(2-(dimethylamino)ethyl)-3-ethyl-1-phenylurea], the “HDAC6 selectivity (fold)” value came to 233 fold. Moreover, the IC50 (read-out: HDAC6) is 43 nM.
In the case of `CN(C)[C@H]1CCN(C(=O)N(Cc2ccc(-c3nnc(C(F)F)o3)cc2F)c2ccc(F)c(Cl)c2)C1` [Compound 21583, (S)—N-(3-chloro-4-fluorophenyl)-N-(4-(5-(difluoromethyl)-1,3,4-oxadiazol-2-yl)-2-fluorobenzyl)-3-(dimethylamino)pyrrolidine-1-carboxamide], the “HDAC6 selectivity (fold)” value was determined as 833 fold. Besides, the IC50 (read-out: HDAC6) came out at 12 nM.
As for `CN(C)[C@@H]1CCN(C(=O)N(Cc2ccc(-c3nnc(C(F)F)o3)cc2F)c2ccc(F)c(Cl)c2)C1` [Compound 21584, (R)—N-(3-chloro-4-fluorophenyl)-N-(4-(5-(difluoromethyl)-1,3,4-oxadiazol-2-yl)-2-fluorobenzyl)-3-(dimethylamino)pyrrolidine-1-carboxamide], the “HDAC6 selectivity (fold)” value worked out at 370 fold. Besides, the IC50 (read-out: HDAC6) was found to be 27 nM.
Take `CN(CCO)C(=O)N(Cc1ccc(-c2nnc(C(F)F)o2)cc1)c1ccccc1` [Compound 21585, 1-(4-(5-(Difluoromethyl)-1,3,4-oxadiazol-2-yl)benzyl)-3-(2-hydroxyethyl)-3-methyl-1-phenylurea]: the “HDAC6 selectivity (fold)” value was 370 fold. Besides, the IC50 (read-out: HDAC6) was 27 nM.
On the same counts, the results for `O=C(N1CC2(COC2)C1)N(Cc1ccc(-c2nnc(C(F)F)o2)cc1F)c1ccc(F)c(Cl)c1` [Compound 21586, N-(3-chloro-4-fluorophenyl)-N-(4-(5-(difluoromethyl)-1,3,4-oxadiazol-2-yl)-2-fluorobenzyl)-2-oxa-6-azaspiro[3.3]heptane-6-carboxamide] are 476 fold and 21 nM.
In the same order, the values of `O=C(N1CCS(=O)(=O)CC1)N(Cc1ccc(-c2nnc(C(F)F)o2)cn1)c1ccc(F)c(Cl)c1` [Compound 21587, N-(3-chloro-4-fluorophenyl)-N-((5-(5-(difluoromethyl)-1,3,4-oxadiazol-2-yl)pyridin-2-yl)methyl)thiomorpholine-4-carboxamide 1,1-dioxide] are 909 fold and 11 nM.
In the same order, the values of `CCN1CCN(C(=O)N(Cc2ccc(-c3nnc(C(F)F)o3)cc2F)c2ccc(F)c(Cl)c2)CC1` [Compound 21591, N-(3-chloro-4-fluorophenyl)-N-(4-(5-(difluoromethyl)-1,3,4-oxadiazol-2-yl)-2-fluorobenzyl)-4-ethylpiperazine-1-carboxamide] are 668 fold and 15 nM.
Take `O=C(N1CCOCC1)N(Cc1ccc(-c2nnc(C(F)F)o2)cc1)c1ccc(F)c(Cl)c1` [Compound 21593, N-(3-chloro-4-fluorophenyl)-N-(4-(5-(difluoromethyl)-1,3,4-oxadiazol-2-yl)benzyl)morpholine-4-carboxamide]: the “HDAC6 selectivity (fold)” value came to 494 fold. For the same molecule, the IC50 (read-out: HDAC6) came to 20 nM.
As to `O=C(N1CCOCC1)N(Cc1ccc(-c2nnc(C(F)(F)F)o2)cc1)c1ccc(F)c(Cl)c1` [Compound 21594, N-(3-chloro-4-fluorophenyl)-N-(4-(5-(trifluoromethyl)-1,3,4-oxadiazol-2-yl)benzyl)morpholine-4-carboxamide], the “HDAC6 selectivity (fold)” value is given as 115 fold. The IC50 (read-out: HDAC6) was determined as 87 nM.
Take `Cc1cccc(N(Cc2ccc(-c3nnc(C(F)F)o3)cn2)C(=O)N2CCN(C)CC2)c1` [Compound 21597, N-((5-(5-(difluoromethyl)-1,3,4-oxadiazol-2-yl)pyridin-2-yl)methyl)-4-methyl-N-(m-tolyl)piperazine-1-carboxamide]: the “HDAC6 selectivity (fold)” value is 323 fold. Besides, the IC50 (read-out: HDAC6) stood at 31 nM.
Turning to `Cc1ccc(N(Cc2ccc(-c3nnc(C(F)F)o3)cn2)C(=O)N2CCN(C)CC2)cc1` [Compound 21598, N-((5-(5-(difluoromethyl)-1,3,4-oxadiazol-2-yl)pyridin-2-yl)methyl)-4-methyl-N-(p-tolyl)piperazine-1-carboxamide], the “HDAC6 selectivity (fold)” value was 238 fold. Also, the IC50 (read-out: HDAC6) was 42 nM.
As for `CN1CCN(C(=O)N(Cc2ccc(-c3nnc(C(F)F)o3)cn2)c2cccc(F)c2)CC1` [Compound 21599, N-((5-(5-(difluoromethyl)-1,3,4-oxadiazol-2-yl)pyridin-2-yl)methyl)-N-(3-fluorophenyl)-4-methylpiperazine-1-carboxamide], the “HDAC6 selectivity (fold)” value was determined as 500 fold. Besides, under “read-out: HDAC6”, the IC50 stood at 20 nM.
As to `CN1CCN(C(=O)N(Cc2ccc(-c3nnc(C(F)F)o3)cn2)c2ccc(F)cc2)CC1` [Compound 21600, N-((5-(5-(difluoromethyl)-1,3,4-oxadiazol-2-yl)pyridin-2-yl)methyl)-N-(4-fluorophenyl)-4-methylpiperazine-1-carboxamide], the “HDAC6 selectivity (fold)” value came out at 400 fold. Besides, the IC50 (read-out: HDAC6) came to 25 nM.

The values are drawn from patent US10717716B2, “1,3,4-oxadiazole derivative compounds as histone deacetylase 6 inhibitor, and the pharmaceutical composition comprising the same” (Chong Kun Dang Pharmaceutical Corp., priority 2015, dated 2020).
